Laboratory results from US12383562B2, “Application of metal complex” (Hunan Fangshengtai Medical Technology Co., Ltd., priority 2019, dated 2025).

Test system: mice with inflammatory pain
Assay: Analgesic activity: CFA-induced inflammatory pain in mice, Von Frey test (paw withdrawal threshold)
Assay type: in vivo, Kunming mice
Settings: for response to the compound (pain threshold): CFA mice, intraperitoneal administration, approximately 0.03 mmol/kg (9, 10 or 11 mg/kg), seven mice; for change of paw withdrawal threshold after injection of drug: drug injected 24 hours after CFA, mice with inflammatory pain
Method: The analgesic assays of three vanadium compounds (bis(maltolato)oxovanadium, bis(ethylmaltolato)oxovanadium, and bis(kojato)oxovanadium) in mice are presented below. Some of the results are shown in FIG. 1, where S1 is bis(maltolato)oxovanadium, S2 is bis(ethylmaltolato)oxovanadium, S3 is bis(kojato)oxovanadium, and thepositive group (i.e., a positive control group) is aspirin group.
10 μl of complete Freund's adjuvant (CFA) was injected subcutaneously into the plantar surface of the left hindpaws of mice (♂ Kunming mice, 22-40 g) to produce inflammation. Von Frey tests were performed at 24 hours after injection or later to determine pain thresholds, i.e., under the guidance of a Dixon's Up-Down method, mice were induced with Von Frey fibers to have mechanical withdrawal of their hindpaws data were collected, and their 50% paw withdrawal thresholds (referred to as paw withdrawal threshold or PWT), namely the pain thresholds, were calculated. Afterwards, the mice were divided into a physiological saline group, a positive control group and a drug group, and injected intraperitoneally with 0.4 ml of physiological saline, 0.4 ml of aspirin (acetylsalicylic acid, or ASA) Tris-buffer solution at a concentration of 20 mg/ml and a mixed solution of a tested compound and 0.4 ml of cellulose solution (1%), respectively. Then, changes in the pain threshold were monitored with the Von Frey tests.

Row | SMILES | response to the compound (pain threshold) | change of paw withdrawal threshold after injection of drug
1 | CCc1occc(=O)c1[O][V](=[O])[O]c1c(CC)occc1=O [S2, bis(ethylmaltolato)oxovanadium(IV)] | all seven mice showed a response to the compound with a general increase in pain threshold | significant increase in the paw withdrawal threshold
2 | [O]=[V-2]12([O]C3=COC(CO)=CC3=[O+]1)[O]C1=COC(CO)=CC1=[O+]2 [S3, bis(kojato)oxovanadium(IV)] | all seven mice showed a response to the compound with a general increase in pain threshold | significant increase in the paw withdrawal threshold
3 | Cc1occc(=O)c1[O][V](=[O])[O]c1c(C)occc1=O [S1, bis(maltolato)oxovanadium(IV)] | all seven mice showed a response to the compound with a general increase in pain threshold | significant increase in the paw withdrawal threshold
